Assay results taken from publication PMC12374583, “Targeting complement C3 with Tanshinone I decreases microglia-mediated synaptic engulfment to exert antidepressant effects” (Theranostics, 2025).

What was measured:
C3 (BV2 cell proteins) [1] = molecular target: T1, C3 (BV2 cell proteins) (Mus musculus, UniProt P01027); experiment: DARTS (Pronase), MS and Western blot; assay type: biochemical; settings: 200 µM Tan I, 1 h; Pronase 30 min
T1 construct: endogenous C3 in BV2 (mouse microglial line) protein extract; detected by Western blot, 130-250 kDa band identified by MS
T1 sequence (P01027 25-666): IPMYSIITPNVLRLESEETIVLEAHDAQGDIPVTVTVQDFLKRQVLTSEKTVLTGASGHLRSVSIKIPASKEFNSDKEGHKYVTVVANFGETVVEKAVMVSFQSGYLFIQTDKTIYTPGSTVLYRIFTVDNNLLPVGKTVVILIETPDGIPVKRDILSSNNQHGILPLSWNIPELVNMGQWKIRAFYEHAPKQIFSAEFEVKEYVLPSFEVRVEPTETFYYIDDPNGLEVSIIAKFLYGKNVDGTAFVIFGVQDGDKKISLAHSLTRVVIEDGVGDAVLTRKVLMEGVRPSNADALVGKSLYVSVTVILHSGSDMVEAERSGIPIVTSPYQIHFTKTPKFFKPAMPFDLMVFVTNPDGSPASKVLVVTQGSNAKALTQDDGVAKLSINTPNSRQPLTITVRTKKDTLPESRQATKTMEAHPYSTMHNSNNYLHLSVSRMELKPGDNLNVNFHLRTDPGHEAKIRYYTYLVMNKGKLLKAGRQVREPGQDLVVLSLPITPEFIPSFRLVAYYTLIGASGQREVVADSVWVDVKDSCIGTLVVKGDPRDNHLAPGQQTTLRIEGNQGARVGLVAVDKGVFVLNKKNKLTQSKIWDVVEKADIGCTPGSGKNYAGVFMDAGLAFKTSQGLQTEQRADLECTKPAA
T1 sequence (P01027 671-1663): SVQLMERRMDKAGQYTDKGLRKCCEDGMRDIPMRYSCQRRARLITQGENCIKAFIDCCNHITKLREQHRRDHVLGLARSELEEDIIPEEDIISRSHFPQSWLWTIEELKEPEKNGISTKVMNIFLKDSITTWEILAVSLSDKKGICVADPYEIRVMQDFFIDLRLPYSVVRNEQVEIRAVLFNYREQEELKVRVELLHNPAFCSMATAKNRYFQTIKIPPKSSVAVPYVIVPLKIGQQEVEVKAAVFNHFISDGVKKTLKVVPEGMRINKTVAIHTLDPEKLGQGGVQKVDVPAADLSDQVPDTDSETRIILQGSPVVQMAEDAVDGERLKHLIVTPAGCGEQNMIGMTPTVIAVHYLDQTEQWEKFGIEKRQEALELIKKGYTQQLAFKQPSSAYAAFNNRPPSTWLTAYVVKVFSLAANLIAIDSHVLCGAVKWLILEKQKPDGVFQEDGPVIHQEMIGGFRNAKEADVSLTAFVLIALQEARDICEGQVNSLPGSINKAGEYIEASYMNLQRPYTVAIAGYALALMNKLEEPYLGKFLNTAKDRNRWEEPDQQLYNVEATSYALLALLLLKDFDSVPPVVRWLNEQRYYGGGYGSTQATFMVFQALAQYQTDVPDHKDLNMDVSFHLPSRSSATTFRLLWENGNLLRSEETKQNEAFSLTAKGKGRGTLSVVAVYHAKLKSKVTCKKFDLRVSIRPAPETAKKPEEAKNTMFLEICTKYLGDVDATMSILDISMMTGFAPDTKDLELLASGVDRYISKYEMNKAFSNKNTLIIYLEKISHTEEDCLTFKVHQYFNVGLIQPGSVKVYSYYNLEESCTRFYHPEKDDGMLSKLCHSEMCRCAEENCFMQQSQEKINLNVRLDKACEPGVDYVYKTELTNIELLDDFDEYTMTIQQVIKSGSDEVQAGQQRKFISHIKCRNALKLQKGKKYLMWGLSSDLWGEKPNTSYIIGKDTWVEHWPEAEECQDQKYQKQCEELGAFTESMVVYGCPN

[2] = molecular target: T2, C3 (complement C3), RED-NHS labelled; experiment: microscale thermophoresis (Monolith NT.[…]); assay type: binding; settings: 25 °C, PBS with 5% DMSO compound stocks, Tan I up to 25 µM
T2 construct: human purified C3 equally possible

C3 (BV2 cell proteins) [3] = molecular target: T1, C3 (BV2 cell proteins); experiment: CETSA in BV2 protein extract, Western blot; assay type: biochemical; settings: Tan I 1 h; 40-65 °C, 3 min

## Cc1coc2c1C(=O)C(=O)c1c-2ccc2c(C)cccc12 [Tan I]
C3 (BV2 cell proteins) [1]
  protection from proteolysis (DARTS): Tan I protected C3 from proteolytic degradation
[2]
  Kd: 3.75 ± 3.31 µM
C3 (BV2 cell proteins) [3]
  thermal stabilisation (CETSA): Tan I significantly enhances the thermal stability of C3 in a certain temperature range
